In the supplement of paper PMC10307832:

Experiments:
Assay in all cases: relative viability (nuclei count vs DMSO), 5 days (fraction); higher = more cells survive
[1] = compound: CC1=C(N=C(N=C1N)[C@H](CC(=O)N)NC[C@@H](C(=O)N)N)C(=O)N[C@@H]([C@H](C2=CN=CN2)OC3C(C(C(C(O3)CO)O)O)OC4C(C(C(C(O4)CO)O)OC(=O)N)O)C(=O)N[C@H](C)[C@H]([C@H](C)C(=O)N[C@@H]([C@@H](C)O)C(=O)NCCC5=NC(=CS5)C6=NC(=CS6)C(=O)NCCC[S+](C)C)O [Bleomycin] + O=C(CCCCCCC(=O)Nc1ccccc1)NO [Vorinostat] (partner 1 µM); conditions: main component drawn
Method in brief: (§1)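 Relative viability equals treated-well nuclei counts divided by vehicle-well nuclei counts. Counts came from 4× images of lung cancer cell lines grown in 1536-well plates for 5 days after pin-tool dosing on the day after seeding. Dosing used one drug alone or a fixed anchor-drug dose plus five library-drug doses (not always all listed) in √10 steps, and values are medians of duplicate plates.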

[2] = compound: COc1cc([C@@H]2c3cc4c(cc3[C@@H](O[C@@H]3O[C@@H]5CO[C@@H](C)O[C@H]5[C@H](O)[C@H]3O)[C@H]3COC(=O)[C@H]23)OCO4)cc(OC)c1O [Etoposide] + O=C(CCCCCCC(=O)Nc1ccccc1)NO [Vorinostat] (partner 1 µM)
Method in brief: as §1

[3] = compound: COc1cc([C@@H]2c3cc4c(cc3[C@@H](O[C@@H]3O[C@@H]5CO[C@@H](C)O[C@H]5[C@H](O)[C@H]3O)[C@H]3COC(=O)[C@H]23)OCO4)cc(OC)c1O [Etoposide] + CS(=O)(=O)CCNCc1ccc(-c2ccc3ncnc(Nc4ccc(OCc5cccc(F)c5)c(Cl)c4)c3c2)o1 [Lapatinib] (partner 2 µM)
Method in brief: as §1

[4] = compound: CC1=C(N=C(N=C1N)[C@H](CC(=O)N)NC[C@@H](C(=O)N)N)C(=O)N[C@@H]([C@H](C2=CN=CN2)OC3C(C(C(C(O3)CO)O)O)OC4C(C(C(C(O4)CO)O)OC(=O)N)O)C(=O)N[C@H](C)[C@H]([C@H](C)C(=O)N[C@@H]([C@@H](C)O)C(=O)NCCC5=NC(=CS5)C6=NC(=CS6)C(=O)NCCC[S+](C)C)O [Bleomycin] + N=C(N)NC(=N)NCCc1ccccc1 [Phenformin] (partner 250 µM); conditions: main component drawn
Method in brief: as §1

NCI-H2405
relative viability ([1]; first compound 0.01 µM): 0.792 | relative viability ([1]; first compound 0.03162 µM): 1 | relative viability ([1]; first compound 0.1 µM): 0.816 | relative viability ([1]; first compound 0.3162 µM): 0.59 | relative viability ([1]; first compound 1 µM): 0.321 | relative viability ([2]; first compound 0.01 µM): 1.11 | relative viability ([2]; first compound 0.03162 µM): 1.12 | relative viability ([2]; first compound 0.1 µM): 0.765 | relative viability ([2]; first compound 0.3162 µM): 0.742 | relative viability ([2]; first compound 1 µM): 0.27 | relative viability ([3]; first compound 0.01 µM): 1.16 | relative viability ([3]; first compound 0.03162 µM): 1.24 | relative viability ([3]; first compound 0.1 µM): 0.746 | relative viability ([3]; first compound 0.3162 µM): 0.77 | relative viability ([3]; first compound 1 µM): 0.275 | relative viability ([4]; first compound 0.01 µM): 0.333 | relative viability ([4]; first compound 0.03162 µM): 0.399 | relative viability ([4]; first compound 0.1 µM): 0.383 | relative viability ([4]; first compound 0.3162 µM): 0.263 | relative viability ([4]; first compound 1 µM): 0.262

NCI-H1355
relative viability ([1]; first compound 0.01 µM): 0.599 | relative viability ([1]; first compound 0.03162 µM): 0.627 | relative viability ([1]; first compound 0.1 µM): 0.676 | relative viability ([1]; first compound 0.3162 µM): 0.325 | relative viability ([1]; first compound 1 µM): 0.207 | relative viability ([2]; first compound 0.01 µM): 0.635 | relative viability ([2]; first compound 0.03162 µM): 0.687 | relative viability ([2]; first compound 0.1 µM): 0.392 | relative viability ([2]; first compound 0.3162 µM): 0.461 | relative viability ([2]; first compound 1 µM): 0.272 | relative viability ([3]; first compound 0.01 µM): 1.09 | relative viability ([3]; first compound 0.03162 µM): 1.03 | relative viability ([3]; first compound 0.1 µM): 0.472 | relative viability ([3]; first compound 0.3162 µM): 0.775 | relative viability ([3]; first compound 1 µM): 0.248 | relative viability ([4]; first compound 0.01 µM): 0.432 | relative viability ([4]; first compound 0.03162 µM): 0.487 | relative viability ([4]; first compound 0.1 µM): 0.429 | relative viability ([4]; first compound 0.3162 µM): 0.27 | relative viability ([4]; first compound 1 µM): 0.194

NCI-H358
relative viability ([1]; first compound 0.01 µM): 0.539 | relative viability ([1]; first compound 0.03162 µM): 0.722 | relative viability ([1]; first compound 0.1 µM): 0.661 | relative viability ([1]; first compound 0.3162 µM): 0.327 | relative viability ([1]; first compound 1 µM): 0.217 | relative viability ([2]; first compound 0.01 µM): 0.663 | relative viability ([2]; first compound 0.03162 µM): 0.508 | relative viability ([2]; first compound 0.1 µM): 0.411 | relative viability ([2]; first compound 0.3162 µM): 0.107 | relative viability ([2]; first compound 1 µM): 0.0977 | relative viability ([3]; first compound 0.01 µM): 0.507 | relative viability ([3]; first compound 0.03162 µM): 0.437 | relative viability ([3]; first compound 0.1 µM): 0.369 | relative viability ([3]; first compound 0.3162 µM): 0.268 | relative viability ([3]; first compound 1 µM): 0.152 | relative viability ([4]; first compound 0.01 µM): 0.343 | relative viability ([4]; first compound 0.03162 µM): 0.352 | relative viability ([4]; first compound 0.1 µM): 0.325 | relative viability ([4]; first compound 0.3162 µM): 0.171 | relative viability ([4]; first compound 1 µM): 0.147

RERF-LC-KJ
relative viability ([1]; first compound 0.01 µM): 0.489 | relative viability ([1]; first compound 0.03162 µM): 0.55 | relative viability ([1]; first compound 0.1 µM): 0.421 | relative viability ([1]; first compound 0.3162 µM): 0.344 | relative viability ([1]; first compound 1 µM): 0.25 | relative viability ([2]; first compound 0.01 µM): 0.624 | relative viability ([2]; first compound 0.03162 µM): 0.728 | relative viability ([2]; first compound 0.1 µM): 0.5 | relative viability ([2]; first compound 0.3162 µM): 0.621 | relative viability ([2]; first compound 1 µM): 0.412 | relative viability ([3]; first compound 0.01 µM): 0.882 | relative viability ([3]; first compound 0.03162 µM): 0.863 | relative viability ([3]; first compound 0.1 µM): 0.626 | relative viability ([3]; first compound 0.3162 µM): 0.828 | relative viability ([3]; first compound 1 µM): 0.733 | relative viability ([4]; first compound 0.01 µM): 0.287 | relative viability ([4]; first compound 0.03162 µM): 0.271 | relative viability ([4]; first compound 0.1 µM): 0.269 | relative viability ([4]; first compound 0.3162 µM): 0.209 | relative viability ([4]; first compound 1 µM): 0.183

NCI-H23
relative viability ([1]; first compound 0.01 µM): 0.264 | relative viability ([1]; first compound 0.03162 µM): 0.316 | relative viability ([1]; first compound 0.1 µM): 0.219 | relative viability ([1]; first compound 0.3162 µM): 0.123 | relative viability ([1]; first compound 1 µM): 0.127 | relative viability ([2]; first compound 0.01 µM): 0.633 | relative viability ([2]; first compound 0.03162 µM): 0.604 | relative viability ([2]; first compound 0.1 µM): 0.316 | relative viability ([2]; first compound 0.3162 µM): 0.262 | relative viability ([2]; first compound 1 µM): 0.145 | relative viability ([3]; first compound 0.01 µM): 1.11 | relative viability ([3]; first compound 0.03162 µM): 1.04 | relative viability ([3]; first compound 0.1 µM): 0.608 | relative viability ([3]; first compound 0.3162 µM): 0.324 | relative viability ([3]; first compound 1 µM): 0.215 | relative viability ([4]; first compound 0.01 µM): 0.518 | relative viability ([4]; first compound 0.03162 µM): 0.586 | relative viability ([4]; first compound 0.1 µM): 0.357 | relative viability ([4]; first compound 0.3162 µM): 0.207 | relative viability ([4]; first compound 1 µM): 0.17

HOP-62
relative viability ([1]; first compound 0.01 µM): 0.277 | relative viability ([1]; first compound 0.03162 µM): 0.277 | relative viability ([1]; first compound 0.1 µM): 0.179 | relative viability ([1]; first compound 0.3162 µM): 0.102 | relative viability ([1]; first compound 1 µM): 0.0753 | relative viability ([2]; first compound 0.01 µM): 0.631 | relative viability ([2]; first compound 0.03162 µM): 0.711 | relative viability ([2]; first compound 0.1 µM): 0.381 | relative viability ([2]; first compound 0.3162 µM): 0.267 | relative viability ([2]; first compound 1 µM): 0.115 | relative viability ([3]; first compound 0.01 µM): 0.973 | relative viability ([3]; first compound 0.03162 µM): 1.05 | relative viability ([3]; first compound 0.1 µM): 0.833 | relative viability ([3]; first compound 0.3162 µM): 0.533 | relative viability ([3]; first compound 1 µM): 0.187 | relative viability ([4]; first compound 0.01 µM): 0.395 | relative viability ([4]; first compound 0.03162 µM): 0.447 | relative viability ([4]; first compound 0.1 µM): 0.239 | relative viability ([4]; first compound 0.3162 µM): 0.185 | relative viability ([4]; first compound 1 µM): 0.105

HARA
relative viability ([1]; first compound 0.01 µM): 0.458 | relative viability ([1]; first compound 0.03162 µM): 0.469 | relative viability ([1]; first compound 0.1 µM): 0.317 | relative viability ([1]; first compound 0.3162 µM): 0.258 | relative viability ([1]; first compound 1 µM): 0.173 | relative viability ([2]; first compound 0.01 µM): 0.443 | relative viability ([2]; first compound 0.03162 µM): 0.573 | relative viability ([2]; first compound 0.1 µM): 0.586 | relative viability ([2]; first compound 0.3162 µM): 0.125 | relative viability ([2]; first compound 1 µM): 0.095 | relative viability ([3]; first compound 0.01 µM): 0.591 | relative viability ([3]; first compound 0.03162 µM): 0.811 | relative viability ([3]; first compound 0.1 µM): 0.675 | relative viability ([3]; first compound 0.3162 µM): 0.56 | relative viability ([3]; first compound 1 µM): 0.134 | relative viability ([4]; first compound 0.01 µM): 0.432 | relative viability ([4]; first compound 0.03162 µM): 0.503 | relative viability ([4]; first compound 0.1 µM): 0.493 | relative viability ([4]; first compound 0.3162 µM): 0.361 | relative viability ([4]; first compound 1 µM): 0.178
